Measured values from patent publication US6528456B2, “Herbicidal 2-pyrazolyl-6-aryloxypyri(mi)dines” (BASF Aktiengesellschaft, priority 1999, dated 2003).

Assays:
Type in all cases: in vivo
[1] = system: Setaria viridis; assay: Pre-emergence test; conditions: 3 weeks after treatment
Protocol: (§1) To evaluate their herbicidal activity, compounds according to the invention are tested using a representative range of plants: SETVI Setaria viridis The pre-emergence tests involve spraying a liquid formulation of the compound onto the soil in which the seeds of the plant species mentioned above has recently been sown. The soil used in the tests is a prepared horticultural loam. The formulations used in the tests are prepared from solutions of the test compounds in acetone containing 0.4% by weight of an alkylphenol/ethylene oxide condensate available under the trade mark TRITON X-155. These acetone solutions are diluted with water and the resulting formulations applied at dosage levels corresponding to 0.025 kg, 0.100 kg or 0.400 kg of active material per hectare in a volume equivalent to 900 litres per hectare. In these tests untreated sown soil are used as controls. From 2 to 4 weeks after treatment, the tests are terminated and each pot is examined and rated according to the rating system set forth below: [table]

[2] = system: Echinochloa crus-galli; assay: Pre-emergence test; conditions: 3 weeks after treatment
Protocol: as §1, with “ECHCG Echinochloa crus-galli” for “SETVI Setaria viridis”

[3] = system: Echinochloa crus-galli; assay: Post-emergence test; conditions: 2-4 weeks after treatment
Protocol: To evaluate their herbicidal activity, compounds according to the invention are tested using a representative range of plants: ECHCG Echinochloa crus-galli [table] […] These acetone solutions are diluted with water and the resulting formulations applied at dosage levels equivalent of about 0.1 to 0. 4 kg per hectare of test compound per pot. After spraying the plants are placed on greenhouse benches and are cared for in the usual manner, commensurate with conventional greenhouse practices. From 2 to 4 weeks after treatment, the seedling plants are examined and rated according to the rating system provided above.

[4] = system: Galium aparine; assay: Pre-emergence test; conditions: 3 weeks after treatment
Protocol: as §1, with “GALAP Galium aparine” for “SETVI Setaria viridis”

[5] = system: Glycine max; assay: Post-emergence test; conditions: 2-4 weeks after treatment
Protocol: To evaluate their herbicidal activity, compounds according to the invention are tested using a representative range of plants:
These acetone solutions are diluted with water and the resulting formulations applied at dosage levels equivalent of about 0.1 to 0. 4 kg per hectare of test compound per pot. After spraying the plants are placed on greenhouse benches and are cared for in the usual manner, commensurate with conventional greenhouse practices. From 2 to 4 weeks after treatment, the seedling plants are examined and rated according to the rating system provided above.

[6] = system: Alopecurus myosuroides; assay: Pre-emergence test; conditions: 3 weeks after treatment
Protocol: as §1, with “ALOMY Alopecurus myosuroides” for “SETVI Setaria viridis”

[7] = system: Hordeum vulgare; assay: Pre-emergence test; conditions: 3 weeks after treatment
Protocol: as §1, with “HORVW Hordeum vulgare” for “SETVI Setaria viridis”

## Cc1cc(Oc2cccc(C(F)(F)F)c2)nc(-c2cc(C(F)(F)F)nn2C)c1 [Example 63]
[1]; 0.025 kg/ha
  SETVI herbicidal rating: 1 (1 - Trace effect)
[1]; 0.100 kg/ha
  SETVI herbicidal rating: 5 (5 - Definite injury)
[1]; 0.400 kg/ha
  SETVI herbicidal rating: 9 (9 - Complete kill)
[2]; 0.025 kg/ha
  ECHCG herbicidal rating: 0 (0 - No effect)
[2]; 0.100 kg/ha
  ECHCG herbicidal rating: 0 (0 - No effect)
[2]; 0.400 kg/ha
  ECHCG herbicidal rating: 4 (4 - Injury)
[3]; 0.1 kg/ha
  ECHCG herbicidal rating: 3 (3 - Moderate effect)
[3]; 0.4 kg/ha
  ECHCG herbicidal rating: 3 (3 - Moderate effect)
[4]; 0.025 kg/ha
  GALAP herbicidal rating: 0 (0 - No effect)
[4]; 0.100 kg/ha
  GALAP herbicidal rating: 0 (0 - No effect)
[4]; 0.400 kg/ha
  GALAP herbicidal rating: 1 (1 - Trace effect)
[5]; 0.1 kg/ha
  GLXMA herbicidal rating: 3 (3 - Moderate effect)
[5]; 0.4 kg/ha
  GLXMA herbicidal rating: 7 (7 - Good herbicidal effect)
[6]; 0.025 kg/ha
  ALOMY herbicidal rating: 0 (0 - No effect)
[6]; 0.100 kg/ha
  ALOMY herbicidal rating: 1 (1 - Trace effect)
[6]; 0.400 kg/ha
  ALOMY herbicidal rating: 5 (5 - Definite injury)
[7]; 0.025 kg/ha
  HORVW herbicidal rating: 0 (0 - No effect)
[7]; 0.100 kg/ha
  HORVW herbicidal rating: 0 (0 - No effect)
[7]; 0.400 kg/ha
  HORVW herbicidal rating: 2 (2 - Slight effect)

## Cc1cnc(-c2cc(C(F)(F)F)nn2C)nc1Oc1cc(C(F)(F)F)nn1C [Example 4, 2-(1-Methyl-3-trifluoromethylpyrazol-5-yl)-6-(1-methyl-3-trifluoromethylpyrazol-5-yloxy)-5-methylpyrimidine]
[1]; 0.025 kg/ha
  SETVI herbicidal rating: 8 (8 - Approaching complete kill)
[1]; 0.100 kg/ha
  SETVI herbicidal rating: 9 (9 - Complete kill)
[1]; 0.400 kg/ha
  SETVI herbicidal rating: 9 (9 - Complete kill)
[2]; 0.025 kg/ha
  ECHCG herbicidal rating: 4 (4 - Injury)
[2]; 0.100 kg/ha
  ECHCG herbicidal rating: 7 (7 - Good herbicidal effect)
[2]; 0.400 kg/ha
  ECHCG herbicidal rating: 8 (8 - Approaching complete kill)
[3]; 0.1 kg/ha
  ECHCG herbicidal rating: 8 (8 - Approaching complete kill)
[3]; 0.4 kg/ha
  ECHCG herbicidal rating: 8 (8 - Approaching complete kill)
[4]; 0.025 kg/ha
  GALAP herbicidal rating: 1 (1 - Trace effect)
[4]; 0.400 kg/ha
  GALAP herbicidal rating: 8 (8 - Approaching complete kill)
[5]; 0.1 kg/ha
  GLXMA herbicidal rating: 4 (4 - Injury)
[5]; 0.4 kg/ha
  GLXMA herbicidal rating: 6 (6 - Herbicidal effect)
[6]; 0.025 kg/ha
  ALOMY herbicidal rating: 2 (2 - Slight effect)
[6]; 0.100 kg/ha
  ALOMY herbicidal rating: 6 (6 - Herbicidal effect)
[6]; 0.400 kg/ha
  ALOMY herbicidal rating: 8 (8 - Approaching complete kill)
[7]; 0.025 kg/ha
  HORVW herbicidal rating: 2 (2 - Slight effect)
[7]; 0.100 kg/ha
  HORVW herbicidal rating: 4 (4 - Injury)
[7]; 0.400 kg/ha
  HORVW herbicidal rating: 5 (5 - Definite injury)

## Cn1nc(C(F)(F)F)cc1Oc1cc(C#N)cc(-c2cc(C(F)(F)F)nn2C)n1 [Example 3, 4-Cyano-2-(1-methyl-3-trifluoromethylpyrazol-5-yloxy)-6-(1-methyl-3-trifluoromethylpyrazol-5-yl)pyridine]
[1]; 0.025 kg/ha
  SETVI herbicidal rating: 3 (3 - Moderate effect)
[1]; 0.100 kg/ha
  SETVI herbicidal rating: 5 (5 - Definite injury)
[1]; 0.400 kg/ha
  SETVI herbicidal rating: 8 (8 - Approaching complete kill)
[2]; 0.025 kg/ha
  ECHCG herbicidal rating: 2 (2 - Slight effect)
[2]; 0.100 kg/ha
  ECHCG herbicidal rating: 4 (4 - Injury)
[2]; 0.400 kg/ha
  ECHCG herbicidal rating: 4 (4 - Injury)
[3]; 0.1 kg/ha
  ECHCG herbicidal rating: 4 (4 - Injury)
[3]; 0.4 kg/ha
  ECHCG herbicidal rating: 4 (4 - Injury)
[4]; 0.025 kg/ha
  GALAP herbicidal rating: 1 (1 - Trace effect)
[4]; 0.100 kg/ha
  GALAP herbicidal rating: 4 (4 - Injury)
[4]; 0.400 kg/ha
  GALAP herbicidal rating: 8 (8 - Approaching complete kill)
[5]; 0.1 kg/ha
  GLXMA herbicidal rating: 3 (3 - Moderate effect)
[5]; 0.4 kg/ha
  GLXMA herbicidal rating: 4 (4 - Injury)
[6]; 0.025 kg/ha
  ALOMY herbicidal rating: 2 (2 - Slight effect)
[6]; 0.100 kg/ha
  ALOMY herbicidal rating: 3 (3 - Moderate effect)
[6]; 0.400 kg/ha
  ALOMY herbicidal rating: 5 (5 - Definite injury)
[7]; 0.025 kg/ha
  HORVW herbicidal rating: 2 (2 - Slight effect)
[7]; 0.100 kg/ha
  HORVW herbicidal rating: 3 (3 - Moderate effect)
[7]; 0.400 kg/ha
  HORVW herbicidal rating: 5 (5 - Definite injury)
